{"source": "patent US6432655B1", "about": "“Method of obtaining compositions” (Synaptic Pharmaceutical Corporation, priority 1992, dated 2002)", "key": {"[1]": {"biological_target": "T1, human 5-HT4B receptor (clone hp78a) (Homo sapiens, UniProt P34969)", "T1 construct": "The entire coding region of the human 5-HT4B receptor (1338 bp); expressed in transfected cells; host or cells: Cos-7 (monkey kidney), transient, plasmid hp78a/EXJ (pcEXV-5HT4B)", "T1 sequence (P34969 1-445 isoform P34969-2)": "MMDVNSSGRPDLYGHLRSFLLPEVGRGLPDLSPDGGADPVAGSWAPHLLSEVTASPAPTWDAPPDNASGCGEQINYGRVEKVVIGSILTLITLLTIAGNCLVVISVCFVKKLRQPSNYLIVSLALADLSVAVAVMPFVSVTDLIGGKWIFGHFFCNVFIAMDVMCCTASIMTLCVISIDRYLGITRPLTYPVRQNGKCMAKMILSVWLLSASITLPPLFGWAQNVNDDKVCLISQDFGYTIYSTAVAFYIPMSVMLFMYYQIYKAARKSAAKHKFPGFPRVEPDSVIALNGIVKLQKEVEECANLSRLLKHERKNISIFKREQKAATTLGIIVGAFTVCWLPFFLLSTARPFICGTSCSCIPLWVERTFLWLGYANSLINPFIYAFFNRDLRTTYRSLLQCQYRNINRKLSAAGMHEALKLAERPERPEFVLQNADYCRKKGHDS", "test": "[3H]5-HT radioligand binding to membranes of Cos-7 cells transiently expressing clone hp78a", "settings": "for Ki: read-out: Ki (apparent dissociation constants for clone hp78a)"}, "human 5-HT4B receptor [2]": {"biological_target": "T2, human 5-HT4B receptor (Homo sapiens, UniProt P34969)", "T2 construct": "The entire coding region of the human 5-HT4B receptor (1338 bp); expressed in transfected cells", "T2 sequence (P34969 1-445 isoform P34969-2)": "as above", "test": "cAMP formation in intact, transiently transfected Cos-7 cells", "assay_type": "cell-based", "settings": "for activity at the clone hp78a receptor: compounds used to define the classical 5-HT4 receptor"}, "human 5-HT4B receptor [3]": {"biological_target": "T2, human 5-HT4B receptor", "test": "cell-based", "assay_type": "cell-based"}, "[4]": {"tested_on": "5-HT receptor present in glial membranes", "settings": "Fillion et al., 1980; property shared with hp78a; cited from earlier work"}, "5-HT4B receptor": {"biological_target": "T3, 5-HT4B receptor (Rattus norvegicus, UniProt P32305)", "T3 construct": "from tissue; host or cells: rat brain cryostat sections (20 µm)", "T3 sequence (P32305 whole entry)": "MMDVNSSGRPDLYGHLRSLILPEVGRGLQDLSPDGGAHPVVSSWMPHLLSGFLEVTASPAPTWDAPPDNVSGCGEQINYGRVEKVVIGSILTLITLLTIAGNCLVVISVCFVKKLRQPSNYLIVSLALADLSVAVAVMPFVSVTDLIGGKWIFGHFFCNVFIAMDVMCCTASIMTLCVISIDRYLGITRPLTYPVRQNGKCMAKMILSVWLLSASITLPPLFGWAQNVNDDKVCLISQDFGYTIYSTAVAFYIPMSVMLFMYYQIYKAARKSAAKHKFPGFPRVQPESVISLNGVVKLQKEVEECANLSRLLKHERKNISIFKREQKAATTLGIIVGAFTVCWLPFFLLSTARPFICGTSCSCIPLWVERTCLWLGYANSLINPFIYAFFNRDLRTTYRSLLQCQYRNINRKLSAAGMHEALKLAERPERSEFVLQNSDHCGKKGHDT", "test": "[3H]5-CT receptor autoradiography on rat brain sections", "assay_type": "binding", "settings": "masks: 100 nM PAPP and 160 nM (−)pindolol added together"}, "[5]": {"tested_on": "5-HT receptors on NCB20 cells", "settings": "Berry-Kravis and Dawson, 1983; read-out: affinity of [3H]-5-HT; cited from earlier work"}, "[6]": {"biological_target": "5-HT receptor present in glial membranes", "settings": "Fillion et al., 1980; property shared with hp78a; read-out: equilibrium dissociation constant Kd; cited from earlier work"}, "[7]": {"settings": "5 nM [3H]5-HT, seven concentrations of competitor, 30 min at 37° C., mean ± S.E.M., 2-5 determinations"}, "[8]": {"settings": "30 nM competitor, 5 nM [3H]5-HT, 30 min at 37° C."}, "[9]": {"settings": "100 nM competitor, 5 nM [3H]5-HT, 30 min at 37° C."}}, "note": "Like-named read-outs stand apart in the source and are kept apart here.", "data": [{"smiles": "CN1[C@@H]2CC[C@H]1C[C@@H](OC(=O)c1c[nH]c3ccccc13)C2", "note": "[ICS 203930]", "values": [{"measurement": "PERCENT INHIBITION (displacement of specific [3H]5-HT binding)", "setting": "[1]; 1000 nM competitor, 5 nM [3H]5-HT, 30 min at 37° C.", "value": 10}, {"measurement": "inhibitory effect on the 5-HT response", "setting": "human 5-HT4B receptor [2]; 100 μM", "value": "weak inhibitory effect"}, {"measurement": "% INHIBITION OF 5-HT RESPONSE", "setting": "human 5-HT4B receptor [2]; 100 μM drug, cAMP response to 1 μM 5-HT", "value": "36 ± 3.0", "unit": "%"}, {"measurement": "FOLD cAMP STIMULATION", "setting": "human 5-HT4B receptor [2]; 100 μM drug, relative to basal levels", "value": 0}, {"measurement": "activity at the clone hp78a receptor", "setting": "human 5-HT4B receptor [2]", "value": "either poorly active or inactive"}]}, {"smiles": "O=C(c1ccc(F)cc1)C1CCN(CCn2c(=O)[nH]c3ccccc3c2=O)CC1", "note": "[Ketanserin]", "values": [{"measurement": "Ki", "setting": "[1]; [7]", "value": "1330 ± 241", "unit": "nM"}]}, {"smiles": "CN1C[C@@H](NS(=O)(=O)N(C)C)C[C@@H]2c3cccc4c3c(cn4C)C[C@H]21", "note": "[Mesulergine]", "values": [{"measurement": "Emax", "setting": "human 5-HT4B receptor [3]; L-M(TK-), read-out: Emax* (% 5-HT RESPONSE)", "value": 0, "unit": "%"}, {"measurement": "Kb", "setting": "human 5-HT4B receptor [3]; dissociation constant of antagonist, KB = [B]/(A′/A) − 1], read-out: KB", "value": "20 ± 1", "unit": "nM"}]}, {"smiles": "CN1C[C@H](CNC(=O)OCc2ccccc2)C[C@@H]2c3cccc4c3c(cn4C)C[C@H]21", "note": "[Metergoline]", "values": [{"measurement": "Ki", "setting": "[1]; [7]", "value": "6.4 ± 1.4", "unit": "nM"}, {"measurement": "antagonism of the 5-HT response", "setting": "human 5-HT4B receptor [2]; 10 μM", "value": "almost completely"}, {"measurement": "FOLD cAMP STIMULATION", "setting": "human 5-HT4B receptor [2]; 10 μM drug, relative to basal levels", "value": 0}]}, {"smiles": "CC[C@@H](CO)NC(=O)[C@@H]1C=C2c3cccc4c3c(cn4C)C[C@H]2N(C)C1", "note": "[Methysergide]", "values": [{"measurement": "Ki", "setting": "[1]", "value": "83 ± 5", "unit": "nM"}, {"measurement": "antagonism", "setting": "[4]", "value": "Potent antagonism"}, {"measurement": "FOLD cAMP STIMULATION", "setting": "human 5-HT4B receptor [2]", "value": "1.7 ± 0.43"}, {"measurement": "antagonism of the 5-HT response", "setting": "human 5-HT4B receptor [2]", "value": "almost completely"}]}, {"smiles": "NC[C@H](O)c1ccc(O)c(O)c1", "note": "[Norepinephrine]", "values": [{"measurement": "PERCENT INHIBITION (displacement of specific [3H]5-HT binding)", "setting": "[1]; [8]", "value": 0}]}, {"smiles": "Cc1cc(C(C)(C)C)c(O)c(C)c1CC1=NCCN1", "note": "[Oxymetazoline]", "values": [{"measurement": "PERCENT INHIBITION (displacement of specific [3H]5-HT binding)", "setting": "[1]; 10 nM competitor, 5 nM [3H]5-HT, 30 min at 37° C.", "value": 6}]}, {"smiles": "Nc1ccc(CCN2CCN(c3cccc(C(F)(F)F)c3)CC2)cc1", "note": "[PAPP]", "values": [{"measurement": "PERCENT INHIBITION (displacement of specific [3H]5-HT binding)", "setting": "[1]", "value": 21}, {"measurement": "effect on [3H]5-CT binding", "setting": "5-HT4B receptor", "value": "markedly reduced"}]}, {"smiles": "CC(C)NCC(O)COc1cccc2ccccc12", "note": "(stereo not shown) [Propranolol]", "values": [{"measurement": "PERCENT INHIBITION (displacement of specific [3H]5-HT binding)", "setting": "[1]; [9]", "value": 0}]}, {"smiles": "c1ccc2nc(N3CCNCC3)ccc2c1", "note": "[Quipazine]", "values": [{"measurement": "PERCENT INHIBITION (displacement of specific [3H]5-HT binding)", "setting": "[1]; [9]", "value": 3}]}, {"smiles": "Cc1nc2sccn2c(=O)c1CCN1CCC(=C(c2ccc(F)cc2)c2ccc(F)cc2)CC1", "note": "[Ritanserin]", "values": [{"measurement": "Ki", "setting": "[1]; [7]", "value": "45 ± 10", "unit": "nM"}]}, {"smiles": "O=C(CCCN1CCC2(CC1)C(=O)NCN2c1ccccc1)c1ccc(F)cc1", "note": "[Spiperone]", "values": [{"measurement": "Ki", "setting": "[1]; [7]", "value": "110 ± 17", "unit": "nM"}]}, {"smiles": "O=C1NCN(c2ccccc2)C12CCN(CC1COc3ccccc3O1)CC2", "note": "(stereo not shown) [Spiroxatrine]", "values": [{"measurement": "PERCENT INHIBITION (displacement of specific [3H]5-HT binding)", "setting": "[1]; [8]", "value": 12}]}, {"smiles": "CNS(=O)(=O)Cc1ccc2[nH]cc(CCN(C)C)c2c1", "note": "[Sumatriptan]", "values": [{"measurement": "Ki", "setting": "[1]", "value": "951 ± 118", "unit": "nM"}]}, {"smiles": "COC(=O)[C@@H]1[C@H]2C[C@H]3c4[nH]c5ccccc5c4CCN3C[C@@H]2CC[C@@H]1O", "note": "[Yohimbine]", "values": [{"measurement": "Ki", "setting": "[1]", "value": "2850 ± 354", "unit": "nM"}]}, {"smiles": "COc1cc(N)c(Cl)cc1C(=O)NC1CN2CCC1CC2", "note": "(stereo not shown) [Zacopride]", "values": [{"measurement": "Ki", "setting": "[1]", "value": "> 5000", "unit": "nM"}, {"measurement": "activity at the clone hp78a receptor", "setting": "human 5-HT4B receptor [2]", "value": "either poorly active or inactive"}]}, {"smiles": "NCCc1c[nH]c2ccc(O)cc12", "note": "[[^3H]5-HT]", "values": [{"measurement": "Kd", "setting": "[5]", "value": "~200", "unit": "nM"}, {"measurement": "Kd", "setting": "[6]", "value": 10, "unit": "nM"}]}, {"smiles": "COc1cc(N)c(Cl)cc1C(=O)NC1CCN(CCCOc2ccc(F)cc2)CC1OC", "note": "(stereo not shown) [cisapride]", "values": [{"measurement": "activity at the clone hp78a receptor", "setting": "human 5-HT4B receptor [2]", "value": "either poorly active or inactive"}]}, {"smiles": "CCN(CC)C(=O)[C@@H]1C=C2c3cccc4[nH]cc(c34)C[C@H]2N(C)C1", "note": "[d-LSD]", "values": [{"measurement": "INTRINSIC ACTIVITY", "setting": "human 5-HT4B receptor [3]", "value": "ANTAGONIST"}, {"measurement": "Emax* (% 5-HT RESPONSE)", "setting": "human 5-HT4B receptor [3]; normalized to the 5-HT maximal response", "value": 0, "unit": "% 5-HT RESPONSE"}, {"measurement": "PERCENT INHIBITION (displacement of specific [3H]5-HT binding)", "setting": "[1]", "value": 77}]}]}
